Data set [1] has as its system S. aureus ATCC29213. As to the kind of experiment: Cytoplasmic membrane integrity, SYTO 9/PI flow cytometry. It is filed as cell-based. To be noted: 2 MIC, 3 h, flow cytometry, 10,000 cells, PBS 0.4%. On the procedure:
(§1) E. coli ATCC25922 and S. aureus ATCC29213 (OD600 = 0.6) were washed and diluted into 1 × 10^8 CFU/mL in sterile saline. The cells were treated with Z-d14CFR in the final concentration of 2 MIC for 3 h. Following that, the same volume of a mixture contains SYTO 9 dye and PI (Thermo Fisher, Waltham, MA, USA) (v/v, 1:1) was added to bacteria and incubated at 37 °C in the dark for 15 min. The bacteria were washed with saline to remove the unbound dye and then observed with a Nikon A1 confocal laser scanning microscope.
(§2) In order to further determine the percentage of PI-positive cells, the data of 10,000 cells were collected and analyzed by BD LSRFortessa flow cytometer.
(In general: A flow cytometer gives signals particle by particle.)

The test system of data set [2] is E. coli ATCC25922. Described as above. It is filed as cell-based. To be noted: 2 MIC, 3 h, flow cytometry, 10,000 cells, PBS 0%. On the procedure: as §1, §2
Data set [3] relates to E. coli ATCC25922 and S. aureus ATCC29213. As to the kind of experiment: Cytoplasmic membrane depolarization, DiSC3(5). The format is cell-based. To be noted: 2 MIC to 1/4 MIC; fluorescence 622/670 nm, 30 min. On the procedure:
The ability of Z-d14CFR to disrupt inner cytoplasmic membrane potential of E. coli ATCC25922 and S. aureus ATCC29213 was monitored using 3,3-dipropylthiadicarbocyanine iodide DiSC3(5) (Macklin, D864435, Shanghai, China) as previous mentioned. The bacteria were washed and resuspended with 5 mM HEPES, pH 7.4, containing 5 mM glucose and 100 mM KCl buffer into 1 × 10^6 CFU/mL. DiSC3(5) was subsequently added and incubated at 37 °C in the dark for 15 min until the fluorescence had stabilized. Z-d14CFR in a final concentration of 2 MIC, 1 MIC, 1/2 MIC and 1/4 MIC was added to the mixture. The fluorescence intensity was continuously monitored for 30 min by an excitation wavelength of 622 nm and an emission wavelength of 670 nm.

Data set [4] has as its system mammalian cells (MAC-T, Hela, Vero). The experiment in a line: Cytotoxicity, CCK8. The format is cell-based. The settings on record: at 1 mg/mL, 24 h in DMEM with 1% FBS, CCK8, OD 450 nm, three independent experiments. On the procedure:
The cytotoxicity of peptides to mammalian cells was carried out according to CCK8 instructions (Beyotime, Shanghai, China). 1 × 10^4 Hela, Vero and MAC-T cells were, respectively, added in 96-well plates and cultured at 37 °C with 5% CO2 for 24 h. Then, the cells were washed thrice with 10 mM PBS to remove medium and then incubated with 100 μL peptide in DMEM with 1 % (v/v) FBS (finally concentration ranging from 1 mg/mL to 0.001 mg/mL). After incubating at 37 °C with 5% CO2 for 24 h, 10 μL CCK8 was added to the cells and then continued to be incubated at 37 °C for 4 h. CCK8 interacted with PBS without cells as the blank control. The absorbance of the mixture was measured at 450 nm and cell viability was calculated as follows: Cell viability (%) = (OD 450 peptide − OD 450 Blank)/(OD 450 PBS − OD 450 Blank) × 100%.

For data set [5], the system named is E. coli CAU201919. The experiment in a line: Murine model of mastitis induced by MDR E. coli. To be noted: Z-d14CFR 25 μg or gentamicin 10 μg via milk duct at 3 h and 15 h, 27 h post-infection. It is filed as in vivo, mice. The source says:
In this study, the therapeutic effects of Z-d14CFR on MDR bacterial infection in vivo was verified by a murine mastitis model. E. coli CAU201919 was used to establish the mastitis model because it is highly pathogenic compared with other bacteria and is resistant to various antibiotics, such as ampicillin, amoxicillin and cefazolin. In brief, 45 Crl:CD1 female mice at 17–18 days of gestation were purchased from Beijing Vital River Laboratory Animal Technology Co., Ltd. (Beijing, China) and kept in the Laboratory Animal Center of China Agricultural University (Beijing, China). At 72 h post-partum, the mice were randomly divided into 5 groups (n = 9 per group) and the offspring were removed 3 h before of administration. The mice were anesthetized by Zoletil 50 (55 mg/kg body weight, WK001, Virbac, France) and held under the stereoscope in a supine position. Mice in the saline group and Z-d14CFR group were intraductal inoculated with 50 μL normal saline or 50 μL Z-d14CFR (25 μg each teat) alone to the milk duct. Mice in other groups were inoculated with 25 μL (1 × 10^5 CFU) E. coli CAU201919 suspension to the milk duct, and after 3 h of E. coli challenged, mice were treated with 25 μL saline, Z-d14CFR (25 μg) or gentamicin (10 μg), respectively, via milk duct injection. Then the mice were given the same treatment after 15 h of E. coli challenged. After 27 h of E. coli challenged, all mice were euthanized. The mammary gland tissues were collected to carry out bacterial count, histopathological examination and inflammatory factors examination.

The test system of data set [6] is S. aureus ATCC29213. The experiment in a line: Time-killing assay. The format is cell-based. To be noted: 2 MIC, CFU counts at 0-24 h. On the procedure:
(§3) E. coli ATCC25922 and S. aureus ATCC29213 in the mid-logarithmic phase were diluted into 1 × 10^6 CFU/mL with 10 mM PBS, and incubated with 10 μL Z-d14CFR in a final concentration of 2 MIC. At 0, 4, 8, 12, 16, 20, and 24 h, the mixture was serial diluted and spread onto LB agar plates. After 16 h of cultivation, the CFU number of bacteria was counted to evaluate the ability of peptide to kill bacteria. The bacteria treated with 10 mM PBS as a negative control, and meanwhile incubated with 2 MIC gentamicin or polymyxin B as a positive control.

Data set [7] relates to E. coli ATCC25922. As to the kind of experiment: Time-killing assay. It is filed as cell-based. The settings on record: 2 MIC, CFU counts at 0-24 h. On the procedure:
as §3

Data set [8] has as its system Streptococcus suis CVCC3307. As to the kind of experiment: MIC/MBC, microdilution broth method. The format is cell-based. The settings on record: Streptococcus suis CVCC3307; kills 99.9% bacteria; NA = no activity at 1 mg/mL. On the procedure:
(§4) The MIC of peptides against bacteria was carried out by the microdilution broth method. The bacterial culture (OD 600 = 0.6) was diluted in 10 mM PBS to 1 × 10^6 CFU/mL. The bacterial suspension (100 μL) was added to 96-well plates, and the same volume of peptides, ampicillin or gentamicin (concentrations ranging from 0.001 to 2 mg/mL) were then added to the same 96-well plates, respectively.
(In broth dilution the organism is exposed to a series of concentrations in liquid medium.)

In data set [9] the test system is Proteus vulgaris CVCC1971. As to the kind of experiment: MIC/MBC, microdilution broth method. It is filed as cell-based. The settings on record: Proteus vulgaris CVCC1971; kills 99.9% bacteria; NA = no activity at 1 mg/mL. On the procedure:
as §4

The subject of data set [10] is S. aureus ATCC29213. As to the kind of experiment: Extracellular β-galactosidase assay. The format is cell-based. To be noted: 2 MIC, 4 h at 37 °C, ONPG, OD 420 nm, compared with PBS, p < 0.001. On the procedure: (§5) E. coli ATCC25922 and S. aureus ATCC29213 were washed and resuspended with 10 mM PBS into OD 600 = 0.5. […] Then, 190 μL of the supernatants was incubated with 10 μL 2-nitrophenyl-β-d-galactopyranoside, ONPG (Macklin, N814742, Shanghai, China) at a final concentration of 3 mM at 37 °C for 30 min. The absorbance at 420 nm was measured to assess the level of β-galactosidase outside the cells. The bacteria treated with 10 mM PBS in absence of peptide as the negative control and treated with ultrasonication as the positive control.

In data set [11] the test system is E. coli ATCC25922. As to the kind of experiment: Extracellular β-galactosidase assay. The format is cell-based. The settings on record: 2 MIC, 4 h at 37 °C, ONPG, OD 420 nm, compared with PBS, p < 0.001. On the procedure: as §5
The test system of data set [12] is MRSA ATCC33591. The experiment in a line: MIC/MBC, microdilution broth method. The format is cell-based, S. aureus. The settings on record: MRSA ATCC33591; kills 99.9% bacteria; NA = no activity at 1 mg/mL. On the procedure: as §4
Data set [13] can be described thus: Retention time of peptide in HPLC (hydrophobicity). It is filed as physicochemical. The settings on record: used as measure of hydrophobicity (order Z-d14CR > Z-d14CF > Z-d13 > Z-d14CFR > Z-d14C); column and gradient not given.

Positions of bridges follow the written chain, without caps; N, C: chain ends. Residues, ends and D or L forms follow the SMILES beside them.

Turning to `CC(C)[C@@H]1NC(=O)[C@@H]2CSSC[C@H](NC(=O)[C@H](CCCNC(=N)N)NC(=O)[C@@H](NC(=O)CNC(=O)[C@@H](N)CCCNC(=N)N)CSSC[C@@H](C(=O)N[C@@H](CCCNC(=N)N)C(N)=O)NC1=O)C(=O)N[C@@H](CC(N)=O)C(=O)N[C@@H](CO)C(=O)N[C@@H](CCCCN)C(=O)N[C@@H](CO)C(=O)N[C@@H](Cc1ccccc1)C(=O)N2` [Z-d14CFR] (H-RGCRCNSKSFCVCR-NH2; disulfide 3-13, 5-11; N-terminus assumed), the values for the PI-positive bacteria in [1] and in data set [2] were 3.4% and 12.5%, respectively. The “DiSC3(5) release (cytoplasmic membrane depolarization)” value in data set [3] is on record as “remarkable releasing of DiSC3(5)”. The same compound came in with a cytotoxicity in data set [4] of less than 10%. In addition, the “bacterial burden in the mammary gland” value in [5] (Crl:CD1 mice, 1 × 10^5 CFU E. coli CAU201919 intraductal, infected only about 3.71 × 10^9, p < 0.001) is reported as 3.57 × 10^8 CFU/g tissue. For the same compound, in [5], the “histopathologic damage of the mammary gland (acinar wall thickening, neutrophils infiltration)” value is listed as “obviously ameliorated”. Besides, the “increase in IL-1β mRNA expression in the mammary gland” value in data set [5] (p < 0.001) is listed as “attenuated”. Moreover, the “increase in TNF-α mRNA expression in the mammary gland” value in data set [5] (p < 0.001) is on record as “attenuated”. The “time to kill bacteria in the logarithmic phase” value in data set [6] (1 × 10^6 CFU/mL) and in data set [7] (1 × 10^6 CFU/mL) was no more than 4 h in each case. In addition, the “time to kill bacteria in the plateau” value in [6] and in data set [7] was no more than 16 h each time. For the same compound, the MBC result in data set [8], in data set [9] and in data set [12] was “NA (NA) (No antimicrobial activity at 1 mg/mL)” in each case. Also, the “extracellular release of β-galactosidase” value in [10] and in [11] was “significantly induced the release of β-galactosidase” throughout. For the same compound, the “RT, retention time of peptide in HPLC” value in data set [13] amounted to 7.820 min.
